The text below walks through data of patent publication US20080171740A1, “Chemical Compounds” (SMITHKLINE BEECHAM CORPORATION, priority 2004, published 2008).

Read-outs that look alike come from different tables or passages of the source.

The test system of one data set is T-tropic HIV. Particulars: patients that are dual tropic or where only the T-tropic form is present; cited from earlier work.
Data set [1] deals with HIV-1 gp160 (HXB2 strain) mediated fusion with HOS (hCXCR4/hCCR5/hCD4/pHIV-LTR-luciferase) cells. Kind of data set: Cell/cell fusion assay (HEK-293 expressing HIV-1 tat, rev, gp160 with HOS hCXCR4/hCCR5/hCD4/pHIV-LTR-luciferase cells). The data set is classed as cell-based. Particulars: Homo sapiens, HEK293; luciferase readout after 24 h; read-out: Fusion assay (pIC50) (converted). Put shortly: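 HEK-293 cells BacMam-transduced (MOI 10 each, 2 mM butyric acid, 24 h) to express HIV-1 tat, rev and HXB2 gp160 were mixed with HOS hCXCR4/hCCR5/hCD4 LTR-luciferase cells, 20,000 each per well, on DMSO compound spots in 2% FCS media. Fusion read as luciferase luminescence after 24 h at 37 °C.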

The target in another data set is T1, CXCR4 receptor (Homo sapiens, UniProt P61073).
T1 construct: expressed in transfected cells; host or cells: HEK-293 cells (stably expressing human macrophage scavenging receptor) transduced with human CXCR4 BacMam and Gqi5 BacMam
T1 sequence (P61073 whole entry): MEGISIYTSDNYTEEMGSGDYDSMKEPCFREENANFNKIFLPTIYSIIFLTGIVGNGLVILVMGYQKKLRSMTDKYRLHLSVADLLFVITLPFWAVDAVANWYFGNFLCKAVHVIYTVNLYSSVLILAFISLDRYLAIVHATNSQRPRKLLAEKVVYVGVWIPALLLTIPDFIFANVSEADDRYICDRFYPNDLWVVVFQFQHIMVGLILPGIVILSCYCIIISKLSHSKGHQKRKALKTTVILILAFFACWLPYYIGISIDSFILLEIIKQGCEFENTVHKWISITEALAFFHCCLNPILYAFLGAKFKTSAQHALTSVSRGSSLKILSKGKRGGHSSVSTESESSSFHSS
Put plainly: Functional FLIPR assay (block of SDF-1 alpha induced [Ca2+]i change). The data set is classed as cell-based. The settings on record: HEK-293 cells with human CXCR4 BacMam and Gqi5 BacMam; antagonism of SDF-1 alpha; read-out: Functional assay (pIC50) (converted).

Data set [2] concerns HIV-1 IIIB strain, T-tropic (CXCR4 utilizing). Kind of data set: HOS HIV-1 infectivity assay. The class given is cell-based. Put shortly:
(§1)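 HOS cells expressing hCXCR4/hCCR5/hCD4 and an HIV-LTR-luciferase reporter, in DMEM with 2% FCS, were pre-treated with compound for 1 h, then infected with HIV-1 IIIB (~2 million RLU/well) for 96 h at 37° C. Infection was read by Steady-Glo luciferase; cytotoxicity in uninfected cultures by CellTiter-Glo.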

Data set [3] can be described thus: Compound cytotoxicity in the absence of virus (CellTiter-Glo). The settings on record: human; non-infected HOS cultures, cell viability; read-out: Cytotox (pIC50) (converted). The data set is classed as cell-based. Put shortly: as §1
[4] abbreviates: Human immunodeficiency virus 1, IIIB, HOS HIV anti-infectivity assay, strain not named in Table 2, read-out: Activity Level.
The mark [5] stands for this setting: Human immunodeficiency virus 1, HOS cells, HIV-1 IIIB, 96 h, luciferase, read-out: HOS (3B).

As for `c1cc(CN2CCCNCCNCCCNCC2)ccc1CN1CCCNCCNCCCNCC1` [AMD-3100], the “T-tropic HIV viral load” value in the data set with T-tropic HIV was “significantly reduce T-tropic HIV viral load”.
On to `NCCCCN(Cc1cn2c(N3CCNCC3)cccc2n1)C1CCCc2cccnc21` (centres unmarked) [Example 22, N-{[5-(1-piperazinyl)imidazo[1,2-a]pyridin-2-yl]methyl}-N-(5,6,7,8-tetrahydro-8-quinolinyl)-1,4-butanediamine], for which the IC50 in data set [1] is 2.82 nM; on CXCR4 receptor, 2.88 nM; in data set [2] (setting [4]), less than 100 nM; in data set [2] (setting [5]) it was 2.2 nM. In addition, the IC50 at 96 h in data set [3] is more than 100000 nM.
For the compound `NCCCCN(Cc1cn2c(N3CCOCC3)cccc2n1)C1CCCc2cccnc21` (centres unmarked) [Example 23, N-{[5-(4-Morpholinyl)imidazo[1,2-a]pyridin-2-yl]methyl}-N-(5,6,7,8-tetrahydro-8-quinolinyl)-1,4-butanediamine], the IC50 in data set [1] was 324 nM; at CXCR4 receptor, 158 nM; in data set [2] (setting [4]), less than 100 nM; in data set [2] (setting [5]), 77 nM. Also, in data set [3], the IC50 at 96 h is more than 100000 nM.
Regarding `CN1CCN(c2cccc3nc(CN(CCCCN)C4CCCc5cccnc54)cn23)CC1` (centres unmarked) [Example 24, N-{[5-(4-Methyl-1-piperazinyl)imidazo[1,2-a]pyridin-2-yl]methyl}-N-(5,6,7,8-tetrahydro-8-quinolinyl)-1,4-butanediamine], the IC50 in data set [1] was 4.9 nM; at CXCR4 receptor it was 41.7 nM; in data set [2] (setting [4]) it was less than 100 nM; in data set [2] (setting [5]), 3.6 nM. The IC50 at 96 h in data set [3] is more than 100000 nM.
With `COc1cccc2nc(CN(CCCCN)C3CCCc4cccnc43)cn12` (centres unmarked) [Example 25, N-{[5-(Methyloxy)imidazo[1,2-a]pyridin-2-yl]methyl}-N-(5,6,7,8-tetrahydro-8-quinolinyl)-1,4-butanediamine], the IC50 in data set [1] is 123 nM; at CXCR4 receptor, 10.2 nM; in data set [2] (setting [4]), less than 100 nM; in data set [2] (setting [5]), 15 nM. Besides, in data set [3], the IC50 at 96 h is more than 100000 nM.
`NCCCCN(Cc1cn2c(N)cccc2n1)C1CCCc2cccnc21` (centres unmarked) [Example 26, N-[(5-Aminoimidazo[1,2-a]pyridin-2-yl)methyl]-N-(5,6,7,8-tetrahydro-8-quinolinyl)-1,4-butanediamine]: the IC50 in data set [1] is 39.8 nM; at CXCR4 receptor, 11.5 nM; in data set [2] (setting [4]), less than 100 nM; in data set [2] (setting [5]), 14 nM. Besides, in data set [3], the IC50 at 96 h is more than 100000 nM.
